Measurements published in patent US20200165257A1, “INHIBITORS OF PHOSPHOINOSITIDE 3-KINASE AND HISTONE DEACETYLASE FOR TREATMENT OF CANCER” (THE UNITED STATES OF AMERICA, AS REPRESENTED BY THE …, priority 2017, published 2020).
Like-named read-outs stand apart in the source and are kept apart here.

Columns and labels:
[1] = system: Breast Cancer Cell Line HS 578T; assay type: cell-based; conditions: Homo sapiens, read-out: inhibition of proliferation
[2] = system: Ovarian Cell Line IGROV1; assay type: cell-based; conditions: Homo sapiens
[3] = system: Leukemia Cell Line K-562; assay type: cell-based; conditions: Homo sapiens
[4] = system: Melanoma Cell Line UACC-62; experiment: cells; assay type: cell-based; conditions: Homo sapiens
[5] = system: Ovarian Cell Line OVCAR-8; experiment: cells; assay type: cell-based; conditions: Homo sapiens; OVCAR-8; single dose, 10 uM compound concentration; read-out: inhibition of proliferation
[6] = system: Leukemia Cell Line CCRF-CEM; experiment: cells; assay type: cell-based; conditions: Homo sapiens, read-out: inhibition of proliferation
[7] = system: Ovarian Cell Line NCI/ADR-RES; experiment: cells; assay type: cell-based; conditions: Homo sapiens, read-out: inhibition of proliferation
[8] = system: Leukemia Cell Line HL-60(TB); assay type: cell-based; conditions: Homo sapiens
[9] = molecular target: T1, HDAC6 (Homo sapiens, UniProt Q9UBN7); experiment: HDAC Fluorescent Activity Assay; assay type: biochemical; conditions: symbols ++ / +; read-out: HDAC6 Inhibition Activity (IC50 class)
T1 sequence (Q9UBN7 1-1215): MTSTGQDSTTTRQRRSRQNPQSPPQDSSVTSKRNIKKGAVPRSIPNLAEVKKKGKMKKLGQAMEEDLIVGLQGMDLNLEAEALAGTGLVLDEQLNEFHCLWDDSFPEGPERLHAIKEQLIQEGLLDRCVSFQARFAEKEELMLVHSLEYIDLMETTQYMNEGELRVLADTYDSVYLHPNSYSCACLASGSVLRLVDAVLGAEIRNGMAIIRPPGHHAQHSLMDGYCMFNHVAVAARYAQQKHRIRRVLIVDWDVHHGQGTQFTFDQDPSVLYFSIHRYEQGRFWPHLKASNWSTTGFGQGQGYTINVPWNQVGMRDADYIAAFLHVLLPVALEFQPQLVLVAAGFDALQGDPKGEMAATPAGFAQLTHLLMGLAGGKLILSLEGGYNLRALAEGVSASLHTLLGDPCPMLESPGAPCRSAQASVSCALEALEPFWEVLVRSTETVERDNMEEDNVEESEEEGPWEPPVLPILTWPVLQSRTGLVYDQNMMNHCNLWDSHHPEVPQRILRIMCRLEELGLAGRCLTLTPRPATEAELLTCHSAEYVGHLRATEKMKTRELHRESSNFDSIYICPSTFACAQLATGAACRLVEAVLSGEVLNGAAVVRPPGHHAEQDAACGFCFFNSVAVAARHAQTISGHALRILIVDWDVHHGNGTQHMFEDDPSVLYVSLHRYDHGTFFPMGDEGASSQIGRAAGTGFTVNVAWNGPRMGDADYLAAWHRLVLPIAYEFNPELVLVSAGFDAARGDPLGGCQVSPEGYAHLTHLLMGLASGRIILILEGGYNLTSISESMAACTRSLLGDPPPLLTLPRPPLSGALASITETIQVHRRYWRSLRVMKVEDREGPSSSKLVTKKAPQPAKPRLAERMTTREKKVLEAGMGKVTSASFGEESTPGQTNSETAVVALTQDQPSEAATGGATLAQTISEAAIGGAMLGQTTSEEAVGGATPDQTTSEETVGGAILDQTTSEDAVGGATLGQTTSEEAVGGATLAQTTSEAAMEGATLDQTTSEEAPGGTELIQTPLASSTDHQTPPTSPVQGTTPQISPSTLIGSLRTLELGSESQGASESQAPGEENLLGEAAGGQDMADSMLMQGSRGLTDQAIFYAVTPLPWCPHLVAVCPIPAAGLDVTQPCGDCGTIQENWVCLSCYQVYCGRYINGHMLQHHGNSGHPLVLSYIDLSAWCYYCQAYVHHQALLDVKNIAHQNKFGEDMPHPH
Method: This protocol is to determine the IC50s or percentage of inhibition values of the test compound against HDACs.
The HDAC Fluorescent Activity Assay is based on the unique Fluorogenic Substrate and Developer combination. […] First, the Fluorogenic Substrate, which comprises an acetylated lysine side chain, is incubated with a purified HDAC enzyme. Deacetylation of the substrate sensitizes the substrate so that, in the second step, treatment with the Developer produces a fluorophore.
Testing compounds were dissolved in 100% DMSO to specific concentration. […]
1. Deliver 2× enzyme in wells of reaction plate except No Enzyme control wells. Add buffer in No En wells.
2. Deliver compounds in 100% DMSO into the enzyme mixture by Acoustic technology (Echo550; nanoliter range). Spin down and pre-incubation.
3. Deliver 2× Substrate Mixture (Fluorogenic HDAC Substrate and co-factor if applicable) in all reaction wells to initiate the reaction. Spin and shake.
4. Incubate for 1-2 hr at 30° C. with seal.
5. Add Developer with Trichostatin A (or TMP269) to stop the reaction and to generate fluorescent color.
6. Fluorescence was read (excitatory, 360; emission, 460) using the EnVision Multilabel
7. Take endpoint reading for analysis after the development reaches plateau.
The percentages of enzyme activity (relative to DMSO controls) and IC50 values were calculated using the GraphPad Prism 4 program based on a sigmoidal dose-response equation.

[10] = system: Leukemia Cell Line MOLT-4; assay type: cell-based; conditions: Homo sapiens
[11] = system: Leukemia Cell Line SR; experiment: cells; assay type: cell-based; conditions: Homo sapiens, read-out: inhibition of proliferation
[12] = system: Ovarian Cell Line OVCAR-3; experiment: cells; conditions: Homo sapiens, OVCAR-3, read-out: inhibition of proliferation
[13] = system: Breast Cancer Cell Line MDA-MB-468; experiment: cells; conditions: Homo sapiens, MDA-MB-468, read-out: inhibition of proliferation
[14] = system: Breast Cancer Cell Line BT-549; experiment: cells; assay type: cell-based; conditions: Homo sapiens
[15] = system: Leukemia Cell Line RPMI-8226; assay type: cell-based; conditions: Homo sapiens
[16] = single dose, 10 uM compound concentration

Cc1nc2cccc(NCc3ccc(C(=O)NO)cc3)c2c(=O)n1-c1ccccc1 [Compound LX, N-hydroxy-4-(((2-methyl-4-oxo-3-phenyl-3,4-dihydroquinazolin-5-yl)amino)methyl)benzamide]
inhibition at 10 µM ([1]; HS 578T, single dose, 10 uM compound concentration): 25 to 50%
inhibition at 10 µM ([2]; IGROV-1, IGROV1, single dose, 10 uM compound concentration, read-out: inhibition of proliferation): > 50%
inhibition at 10 µM ([3]; K562, K-562, single dose, 10 uM compound concentration, read-out: inhibition of proliferation): > 50%
inhibition at 10 µM ([4]; UACC-62, single dose, 10 uM compound concentration, read-out: inhibition of proliferation): > 50%
inhibition at 10 µM [5]: > 50%
inhibition at 10 µM [6, 16]: > 50%
inhibition at 10 µM [7, 16]: > 50%
inhibition at 10 µM ([8]; HL-60(TB), single dose, 10 uM compound concentration, read-out: inhibition of proliferation): > 50%
IC50 [9]: < 0.1 µM
inhibition at 10 µM ([10]; MOLT-4, single dose, 10 uM compound concentration, read-out: inhibition of proliferation): > 50%
inhibition at 10 µM ([11]; SR, single dose, 10 uM compound concentration): > 50%
inhibition at 10 µM [12]: > 50%
inhibition at 10 µM [13]: > 50%
inhibition at 10 µM ([14]; BT-549, single dose, 10 uM compound concentration, read-out: inhibition of proliferation): 25 to 50%
inhibition at 10 µM ([15]; RPMI-8226, single dose, 10 uM compound concentration, read-out: inhibition of proliferation): > 50%

CC[C@H](Nc1ncnc2[nH]cnc12)c1nc2cccc(NCc3ccc(C(=O)NO)nc3)c2c(=O)n1-c1ccccc1 [V, (S)-5-(((2-(1-((9H-purin-6-yl)amino)propyl)-4-oxo-3-phenyl-3,4-dihydroquinazolin-5-yl)amino)methyl)-N-hydroxypicolinamide]
inhibition at 10 µM ([1]; Hs-578T): > 50%
inhibition at 10 µM ([2]; IGROV-1, read-out: inhibition of proliferation): 25 to 50%
inhibition at 10 µM ([3]; K562, read-out: inhibition of proliferation): > 50%
inhibition at 10 µM ([4]; UACC-62, read-out: inhibition of proliferation): > 50%
inhibition at 10 µM [6]: > 50%
inhibition at 10 µM [7]: 25 to 50%
inhibition at 10 µM ([8]; HL-60, read-out: inhibition of proliferation): > 50%
inhibition at 10 µM ([10]; MOLT-4, read-out: inhibition of proliferation): > 50%
inhibition at 10 µM [11]: > 50%
inhibition at 10 µM ([14]; BT-549, read-out: inhibition of proliferation): > 50%
inhibition at 10 µM ([15]; RPMI-8226, read-out: inhibition of proliferation): > 50%
